Reference: US5614555A, “Amidinophenol derivatives” (Ono Pharmaceutical Co., Ltd., priority 1992, dated 1997)
Structures can show the parent of a compound that is named as a salt.

Assays:
[1] = molecular target: T1, PLA2 (derived from hog pancreas) (Sus scrofa, UniProt P00592); experiment: Inhibitory activity on PLA2; format: biochemical; settings: pH7.5, 10PY-PC substrate, fluorescence Ex=345 nm, Em=396 nm
T1 construct: from tissue; host or cells: hog pancreas
Procedure: A reaction solution including 50 mM tris-HCl buffer (pH7.5, 874 μl; containing 100 mM sodium chloride, 1 mM EDTA), 1M calcium chloride (6 μl), 1% bovine serum albumin (10 μl) and 2.5 mM 10PY-PC (10 μl), was prepared. To the solution were added a test compound in various concentration or water (50 μl), and a solution of 10 mU/ml PLA2 (derived from hog pancreas)(50 μl). The appearance of fluorescence was measured (Ex=345 nm, Em=396 nm). Percentage (%) of the strength of fluorescence in the presence of a test compound was calculated when the strength of that in the absence thereof was regarded as 100%, and therefrom IC50 value was calculated.
10PY-PC represents 3'-palmitoyl-2-(1 -pyrenedecanoyl)-L-α-phosphatidycholine, […]

[2] = molecular target: T2, trypsin (derived from bovine pancreas) (Bos taurus, UniProt P00760); experiment: Inhibitory activity on trypsin; format: biochemical; settings: pH8.0, preincubated one minute at 30° C., BAPNA substrate, 30 min, absorbance at 405 nm
T2 construct: from tissue; host or cells: bovine pancreas
T2 sequence (P00760 24-246): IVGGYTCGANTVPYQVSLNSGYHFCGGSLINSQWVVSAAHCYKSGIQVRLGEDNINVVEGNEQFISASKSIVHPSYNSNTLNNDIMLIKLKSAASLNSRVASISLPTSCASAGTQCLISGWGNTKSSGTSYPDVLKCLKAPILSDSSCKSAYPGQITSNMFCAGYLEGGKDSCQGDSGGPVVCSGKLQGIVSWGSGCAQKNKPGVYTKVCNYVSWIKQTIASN
Procedure: To a mixture of a 0.2M HEPES.sodium hydroxide buffer solution (pH8.0, 100 μl ) and distilled water (640 μl), were added a test compound in various concentration or water (10 μl), and a solution of 80 mU/ml trypsin (derived from bovine pancreas) (50 μl) and then the mixture was preincubated for one minute at 30° C. To the solution thus obtained was added 2.5 mM BAPNA (200 μl) and the mixture was incubated for 30 min. The absorbance at 405 nm was measured. Percentage (%) of the absorbance in the presence of a test compound was calculated when the absorbance in the absence thereof was regarded as 100%, and therefrom IC50 value was calculated.
HEPES represents 4-(2-hydroxyethyl)-1-piperazineethanesulfonic acid, and
BAPNA represents a-N-benzoyl-DL-arginine-p-nitroanilide hydrochloride.

PLA2 = settings: Japan. J. Pharmacol., 52, 23-34, 1990; cited from earlier work

T1 sequence (P00592 23-146): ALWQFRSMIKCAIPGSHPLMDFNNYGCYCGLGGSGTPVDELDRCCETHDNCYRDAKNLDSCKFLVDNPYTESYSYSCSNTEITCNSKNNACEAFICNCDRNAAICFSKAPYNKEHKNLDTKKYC

Compound	IC50 [1]	IC50 [2]	inhibitory activity on PLA2 (in words) (PLA2)
CCOC(=O)CC[C@H](NC(=O)/C(C)=C/c1ccc(C(=O)Oc2ccc(C(=N)N)cc2)cc1)C(=O)OCC [1(d), p-(p-amidino-phenoxycarbonyl)-α-methylcinnamicacid N-[1-(S),3-bis-(ethoxycarbonyl)]-propylamidehydrochloride]	63000 nM	130 nM	–
C=CCN(CC(=O)OCC)C(=O)/C(C)=C/c1ccc(C(=O)Oc2ccc(C(=N)N)cc2)cc1 [1(i), p-(p-amidino-phenoxycarbonyl)-α-methylcinnamicacid N-allyl-N-ethoxycarbonylmethylamideacetate]	28000 nM	130 nM	–
CCOC(=O)CN(C(=O)/C=C(\C)c1ccc(C(=O)Oc2ccc(C(=N)N)cc2)cc1)c1ccccc1 [1(k), p-(p-amidino-phenoxycarbonyl)-β-methylcinnamicacid N-phenyl-N-ethoxycarbonyl-methylamidehydrochloride]	3100 nM	220 nM	–
CCOC(=O)CN(Cc1ccccc1)C(=O)/C(C)=C/c1ccc(C(=O)Oc2ccc(C(=N)N)cc2)cc1 [Example 1, p-(p-Amidinophenoxycarbonyl)-α-methylcinnamic acid N-ethoxycarbonylmethyl-N-phenylmethylamide hydrochloride]	4800 nM	140 nM	–
CN(C)C(=O)COC(=O)Cc1ccc(OC(=O)c2ccc(NC(=N)N)cc2)cc1 [camostat mesylate]	–	–	having an inhibitory activity on PLA2
N=C(N)Nc1ccc(C(=O)Oc2ccc3cc(C(=N)N)ccc3c2)cc1 [nafamostat mesilate]	–	–	having an inhibitory activity on PLA2

Now from value to compound, other results behind:

IC50 [1]	IC50 [2]	Compound	inhibitory activity on PLA2 (in words) (PLA2)
5300 nM	140 nM	CCOC(=O)CN(C(=O)/C(C)=C/c1ccc(C(=O)Oc2ccc(C(=N)N)cc2)cc1)c1ccc(F)cc1 [1(g), p-(p-amidino-phenoxycarbonyl)-α-methylcinnamicacid N-(p-fluoro-phenyl)-N-ethoxy-carbonylmethyl-amidemethanesulfonate]	–
–	150 nM	CCOC(=O)CN(C(=O)c1ccc(C(=O)Oc2ccc(C(=N)N)cc2C(=O)OC)cc1)c1ccccc1 [1(p), p-(p-amidino-o-methoxycarbonyl-phenoxycarbonyl)-benzoic acid N-phenyl-N-ethoxy-carbonylmethyl-amide acetate]	–
24000 nM	220 nM	N=C(N)c1ccc(OC(=O)c2ccc(C(=O)N3CCN(Cc4ccccc4)CC3)cc2)cc1 [1(t), p-(p-amidino-phenoxycarbonyl)-benzoic acid N'-phenylmethyl-piperazinylamidedihydrochloride]	–
32000 nM	140 nM	N=C(N)c1ccc(OC(=O)c2ccc(C(=O)N3CCC[C@@H]3C(=O)OCc3ccccc3)cc2)cc1 [2(f), p-(p-amidinophenoxycarbonyl)benzoic acid-N-(2-(R)-benzyloxycarbonyl)pyrrolidinylamideacetic acid]	–
15000 nM	140 nM	CCOC(=O)CN(C(=O)/C=C/c1ccc(C(=O)Oc2ccc(C(=N)N)cc2)cc1)c1ccccc1 [Example 2(a), p-(p-amidinophenoxycarbonyl)cinnamic acid-N-phenyl-N-ethoxycarbonylmethyl amidehydrochloride]	–
–	100 nM	C=CCN(CC(=O)O)C(=O)/C(C)=C/c1ccc(C(=O)Oc2ccc(C(=N)N)cc2)cc1 [Example 4, p-(p-Amidinophenoxycarbonyl)-α-methylcinnamic acid N-carboxymethyl-N-allylamide methanesulfonate]	–
